From ChEMBL document CHEMBL1201862, “PubChem BioAssay data set” (2004)
The source made the active and inactive calls.

Assays:
[1] = biological target: T1, Corticotropin-releasing factor receptor 2/Corticotropin-releasing factor-binding protein (Homo sapiens, UniProt P24387+Q13324); experiment: activators of CRF receptor 2 with binding protein – uHTS hits, confirmation (AID 602473); format: functional; settings: read-out: EC50_Mean
T1 sequence (Q13324 whole entry): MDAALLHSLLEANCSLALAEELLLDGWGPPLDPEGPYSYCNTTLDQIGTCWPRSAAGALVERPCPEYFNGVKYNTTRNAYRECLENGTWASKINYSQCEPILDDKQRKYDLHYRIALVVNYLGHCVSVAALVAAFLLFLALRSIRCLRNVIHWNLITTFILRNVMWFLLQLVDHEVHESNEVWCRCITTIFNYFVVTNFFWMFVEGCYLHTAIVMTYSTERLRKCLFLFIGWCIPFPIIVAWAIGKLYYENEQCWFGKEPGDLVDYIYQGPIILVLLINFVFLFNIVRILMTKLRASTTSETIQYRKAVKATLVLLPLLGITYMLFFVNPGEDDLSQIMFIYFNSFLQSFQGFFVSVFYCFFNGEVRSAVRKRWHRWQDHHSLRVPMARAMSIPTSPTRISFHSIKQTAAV
T1 sequence (P24387 whole entry): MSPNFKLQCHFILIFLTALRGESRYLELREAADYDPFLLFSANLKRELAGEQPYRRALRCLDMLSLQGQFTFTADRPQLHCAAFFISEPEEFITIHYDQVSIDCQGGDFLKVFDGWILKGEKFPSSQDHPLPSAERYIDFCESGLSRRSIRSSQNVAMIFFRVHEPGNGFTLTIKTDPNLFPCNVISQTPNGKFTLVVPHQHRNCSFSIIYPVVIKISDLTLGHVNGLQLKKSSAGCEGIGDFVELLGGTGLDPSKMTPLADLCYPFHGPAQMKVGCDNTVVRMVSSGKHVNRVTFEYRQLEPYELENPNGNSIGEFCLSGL

[2] = biological target: T2, Scavenger receptor class B member 1 (Mus musculus, UniProt Q61009); experiment: mouse SR-BI DiI-HDL transfer blockers – ldlA[mSR-BI] CHO cells, fluorescence plate reader, dry powder, set 9, dose response (AID 623880); format: functional, cell-based
T2 sequence (Q61009 whole entry): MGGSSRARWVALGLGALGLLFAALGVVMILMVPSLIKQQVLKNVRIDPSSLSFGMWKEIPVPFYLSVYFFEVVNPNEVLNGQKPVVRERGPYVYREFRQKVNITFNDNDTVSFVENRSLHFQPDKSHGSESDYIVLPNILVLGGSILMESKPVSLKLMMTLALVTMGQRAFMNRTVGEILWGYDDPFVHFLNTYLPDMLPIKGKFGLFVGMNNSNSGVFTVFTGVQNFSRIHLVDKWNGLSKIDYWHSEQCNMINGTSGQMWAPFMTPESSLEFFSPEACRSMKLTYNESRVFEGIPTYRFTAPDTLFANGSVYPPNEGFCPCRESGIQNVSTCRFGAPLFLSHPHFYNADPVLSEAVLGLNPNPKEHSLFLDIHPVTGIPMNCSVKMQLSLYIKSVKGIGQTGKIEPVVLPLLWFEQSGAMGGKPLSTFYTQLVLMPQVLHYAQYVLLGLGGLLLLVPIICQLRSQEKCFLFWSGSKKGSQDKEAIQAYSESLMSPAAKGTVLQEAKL

[3] = biological target: T2, Scavenger receptor class B member 1; experiment: blockers of DiI-HDL lipid transfer via SR-BI – cell-based, ldlA[mSR-BI] CHO, DiI fluorescence, dry powder, set 10, dose response (AID 624029); format: functional
[4] = biological target: DNA repair and recombination protein RAD54-like (Homo sapiens, UniProt Q92698); experiment: RAD54 Holliday junction migration blockers – biochemical, fluorescence, cherry-picked samples, dose series, confirmation (AID 651657); format: functional
DNA repair and recombination protein RAD54-like, sequence (Q92698 whole entry): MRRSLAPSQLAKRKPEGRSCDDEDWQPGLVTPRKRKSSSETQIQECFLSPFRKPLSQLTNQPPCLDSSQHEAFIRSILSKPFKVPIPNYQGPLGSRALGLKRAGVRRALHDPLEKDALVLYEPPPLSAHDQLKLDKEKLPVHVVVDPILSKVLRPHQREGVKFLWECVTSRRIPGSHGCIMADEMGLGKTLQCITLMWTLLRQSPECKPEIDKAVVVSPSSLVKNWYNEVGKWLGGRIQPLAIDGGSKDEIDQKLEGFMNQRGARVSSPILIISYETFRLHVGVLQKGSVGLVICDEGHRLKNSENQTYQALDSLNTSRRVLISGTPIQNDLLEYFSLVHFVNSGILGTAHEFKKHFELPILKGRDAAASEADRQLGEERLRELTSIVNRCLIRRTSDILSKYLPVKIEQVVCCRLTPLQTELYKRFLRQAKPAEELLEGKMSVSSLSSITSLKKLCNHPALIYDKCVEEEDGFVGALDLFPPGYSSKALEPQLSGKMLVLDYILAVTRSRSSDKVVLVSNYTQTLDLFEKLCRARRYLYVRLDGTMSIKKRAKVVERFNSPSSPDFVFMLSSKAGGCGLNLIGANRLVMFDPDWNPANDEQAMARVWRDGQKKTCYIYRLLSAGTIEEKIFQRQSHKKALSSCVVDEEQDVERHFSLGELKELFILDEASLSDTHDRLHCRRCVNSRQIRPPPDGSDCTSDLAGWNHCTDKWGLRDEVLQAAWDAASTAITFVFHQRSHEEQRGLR

[5] = biological target: T3, DNA repair protein RAD52 homolog (Homo sapiens, UniProt P43351); format: functional, biochemical
T3 sequence (P43351 whole entry): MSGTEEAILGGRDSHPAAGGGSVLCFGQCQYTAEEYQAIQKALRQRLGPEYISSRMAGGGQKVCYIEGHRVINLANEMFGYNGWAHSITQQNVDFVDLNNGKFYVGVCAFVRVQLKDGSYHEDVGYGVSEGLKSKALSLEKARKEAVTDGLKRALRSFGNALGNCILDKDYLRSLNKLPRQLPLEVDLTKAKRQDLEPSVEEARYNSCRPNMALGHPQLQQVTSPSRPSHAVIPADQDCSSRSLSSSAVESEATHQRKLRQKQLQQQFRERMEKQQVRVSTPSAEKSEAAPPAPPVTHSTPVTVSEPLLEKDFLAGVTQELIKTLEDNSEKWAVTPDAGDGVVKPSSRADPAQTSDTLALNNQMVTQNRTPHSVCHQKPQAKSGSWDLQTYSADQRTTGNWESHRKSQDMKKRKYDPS

[6] = Luminescence Cell-Based Dose Confirmation HTS to Identify Activators of 5'UTR Stem-Loop Driven Alpha-Synuclein mRNA Translation in H4 Neuroglioblastoma Cells. [Related pubchem assays: 1829 (Project Summary), 1814 (Primary HTS)]; format: functional
[7] = Luminescence Cell-Based Dose Response HTS to Identify Activators of Luciferase Translation or Activity in H4 […] Cells. [Related pubchem assays: 1829 (Project Summary), 1814 (Primary HTS)]; format: functional
H4 = experiment: Luminescence Cell-Based Dose Response HTS to Identify Activators of 5'UTR Stem-Loop Driven Prion Protein mRNA Translation in H4 Neuroglioblastoma Cells. [Related pubchem assays: 1829 (Project Summary), 1814 (Primary HTS)]; format: functional; settings: Homo sapiens
[8] = Counterscreen for inhibitors of Trypanosoma brucei methionyl tRNA synthetase (MetRS): Luminescence-based cell-based high throughput dose response assay to identify compounds that are cytotoxic to Jurkat human T lymphocyte cells.; format: functional
[9] = biological target: T4, Methionyl-tRNA synthetase, putative (Trypanosoma brucei brucei, UniProt Q38C91); format: functional, Trypanosoma brucei brucei strain 927/4 GUTat10.1;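 also: Read-out by fluorescence polarization, run as a confirmatory high-throughput counterscreen; potency of MetRS inhibitors measured by reduced AMP formation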
T4 sequence (Q38C91 whole entry): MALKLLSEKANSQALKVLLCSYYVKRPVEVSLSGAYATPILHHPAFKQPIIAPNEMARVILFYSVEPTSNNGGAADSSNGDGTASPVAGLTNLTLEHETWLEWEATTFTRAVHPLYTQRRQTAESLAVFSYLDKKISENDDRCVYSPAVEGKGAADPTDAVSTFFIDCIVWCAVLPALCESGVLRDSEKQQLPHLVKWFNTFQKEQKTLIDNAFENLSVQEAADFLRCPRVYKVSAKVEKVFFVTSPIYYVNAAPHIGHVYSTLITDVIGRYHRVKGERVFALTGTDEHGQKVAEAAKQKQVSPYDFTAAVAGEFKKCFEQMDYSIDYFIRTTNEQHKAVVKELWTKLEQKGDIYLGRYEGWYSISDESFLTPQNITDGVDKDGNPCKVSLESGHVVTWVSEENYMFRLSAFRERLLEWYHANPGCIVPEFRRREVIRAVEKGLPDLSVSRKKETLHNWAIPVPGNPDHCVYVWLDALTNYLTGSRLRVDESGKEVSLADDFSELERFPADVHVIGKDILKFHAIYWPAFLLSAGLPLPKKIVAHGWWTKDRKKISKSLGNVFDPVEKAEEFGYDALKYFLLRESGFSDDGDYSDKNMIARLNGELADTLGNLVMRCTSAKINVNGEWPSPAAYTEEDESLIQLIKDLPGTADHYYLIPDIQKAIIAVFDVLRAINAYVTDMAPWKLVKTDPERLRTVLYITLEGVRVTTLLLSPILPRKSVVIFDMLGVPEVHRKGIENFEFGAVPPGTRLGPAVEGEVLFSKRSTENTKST

Orexin receptor type 2 [10] = biological target: T5, Orexin receptor type 2 (Homo sapiens, UniProt O43614); experiment: Counterscreen assay for antagonists of the orexin 1 receptor (OX1R; HCRTR1): Fluorescence-based cell-based dose response assay for antagonists of the orexin 2 receptor (OX2R; HCRTR2), run by assay provider.; format: functional
T5 sequence (O43614 whole entry): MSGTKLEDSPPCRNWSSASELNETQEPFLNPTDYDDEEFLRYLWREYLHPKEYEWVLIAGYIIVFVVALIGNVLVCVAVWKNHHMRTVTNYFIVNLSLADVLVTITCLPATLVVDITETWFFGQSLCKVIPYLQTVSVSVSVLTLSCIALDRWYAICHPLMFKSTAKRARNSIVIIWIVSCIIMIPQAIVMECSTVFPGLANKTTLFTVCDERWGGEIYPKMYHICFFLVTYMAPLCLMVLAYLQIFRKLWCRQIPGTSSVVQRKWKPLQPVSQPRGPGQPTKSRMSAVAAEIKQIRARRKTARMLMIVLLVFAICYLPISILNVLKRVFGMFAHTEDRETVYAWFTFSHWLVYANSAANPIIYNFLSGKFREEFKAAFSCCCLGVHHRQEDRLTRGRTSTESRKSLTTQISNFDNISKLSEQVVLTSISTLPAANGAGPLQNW

[11] = biological target: T6, Orexin/Hypocretin receptor type 1 (Homo sapiens, UniProt O43613); experiment: Fluorescence-based cell-based high throughput dose response assay for antagonists of the orexin 1 receptor (OX1R; HCRTR1). [Related pubchem assays (depositor defined):AID434989, AID435008, AID463079, AID485270, AID492963, AID492964, AID492965, AID493232, AID504717, AID504718]; format: functional
T6 sequence (O43613 whole entry): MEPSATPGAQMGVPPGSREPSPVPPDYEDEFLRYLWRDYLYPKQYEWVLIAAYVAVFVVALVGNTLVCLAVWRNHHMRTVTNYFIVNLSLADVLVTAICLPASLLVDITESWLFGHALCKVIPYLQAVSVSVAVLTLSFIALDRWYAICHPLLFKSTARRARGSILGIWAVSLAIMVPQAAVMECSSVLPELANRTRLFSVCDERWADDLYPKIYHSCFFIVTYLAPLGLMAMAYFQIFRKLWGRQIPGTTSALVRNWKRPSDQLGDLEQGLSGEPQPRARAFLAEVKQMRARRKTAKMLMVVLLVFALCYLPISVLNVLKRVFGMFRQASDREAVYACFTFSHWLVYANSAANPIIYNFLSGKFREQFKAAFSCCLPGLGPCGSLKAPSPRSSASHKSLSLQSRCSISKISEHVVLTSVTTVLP

[12] = biological target: T6, Orexin/Hypocretin receptor type 1; experiment: Homogeneous Time Resolved Fluorescence (HTRF)-based cell-based high throughput dose response assay for antagonists of the orexin 1 receptor (OX1R; HCRTR1). [Related pubchem assays (depositor defined):AID434989, AID435008, AID463079, AID485270, AID492963, AID492964, AID492965, AID493232, AID504717, AID504718]; format: functional
[13] = Counterscreen for antagonists of the orexin 1 receptor (OX1R; HCRTR1): Fluorescence-based cell-based high throughput dose response assay to identify antagonists of the parental CHO cell line. [Related pubchem assays (depositor defined):AID434989, AID435008, AID463079, AID485270, AID492963, AID492964, AID492965, AID493232, AID504699, AID504701]; format: functional
CHO-K1 = experiment: Counterscreen for antagonists of the orexin 1 receptor (OX1R; HCRTR1): Homogeneous time resolved fluorescence (HTRF)-based cell-based dose response assay to identify antagonists of the parental CHO-K1 cell line. [Related pubchem assays (depositor defined):AID434989, AID435008, AID463079, AID485270, AID492963, AID492964, AID492965, AID493232, AID504699, AID504701]; format: functional; settings: Cricetulus griseus;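 also: potency for inhibition of ATP-stimulated IP1 production as antagonists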
Orexin receptor type 2 [14] = biological target: T5, Orexin receptor type 2; experiment: Counterscreen assay for antagonists of the orexin 1 receptor (OX1R; HCRTR1): Homogeneous Time Resolved Fluorescence (HTRF)-based cell-based dose response assay for antagonists of the orexin 2 receptor (OX2R; HCRTR2), run by assay provider.; format: functional
[15] = biological target: Adenosylmethionine-8-amino-7-oxononanoate aminotransferase (Mycobacterium tuberculosis, UniProt P9WQ81); experiment: Mycobacterium tuberculosis BioA enzyme inhibitor Measured in Biochemical System Using Plate Reader - 2163-02_Inhibitor_Dose_CherryPick_Activity.; format: functional, Mycobacterium tuberculosis UT205
Adenosylmethionine-8-amino-7-oxononanoate aminotransferase, sequence (P9WQ81 whole entry): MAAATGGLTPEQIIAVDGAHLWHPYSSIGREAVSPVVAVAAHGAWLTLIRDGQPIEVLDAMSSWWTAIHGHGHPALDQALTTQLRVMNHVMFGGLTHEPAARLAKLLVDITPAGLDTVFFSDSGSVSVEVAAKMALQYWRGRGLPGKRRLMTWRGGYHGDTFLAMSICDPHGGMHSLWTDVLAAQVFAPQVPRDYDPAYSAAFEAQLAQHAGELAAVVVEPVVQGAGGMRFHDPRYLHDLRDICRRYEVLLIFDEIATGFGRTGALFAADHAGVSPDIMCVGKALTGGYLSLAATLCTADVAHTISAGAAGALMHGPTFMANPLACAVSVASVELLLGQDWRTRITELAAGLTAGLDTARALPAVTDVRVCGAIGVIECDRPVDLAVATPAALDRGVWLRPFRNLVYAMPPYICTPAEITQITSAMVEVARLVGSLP

O=C1C2C3C=CC(C3)C2C(=O)N1c1cccc(N2C(=O)C3C4C=CC(C4)C3C2=O)n1 (configuration not stated)
EC50 [1]: > 53 µM (inactive)
AC50 [2]: 45.2 µM (active)
AC50 [3]: > 70 µM (inactive)

Cc1cc(C)c2c(c1)c1nnc(SCCN3CCCCC3)nc1n2C
AC50 [4]: 11 µM (active)
AC50 [5]: 6.11 µM (active)

Cc1ccc2[nH]c(-c3ccc(SCC(=O)Nc4ccc5c(c4)OCCO5)nc3)nc2c1
EC50 [6]: 1.13 µM (active)
EC50 [7]: 1.99 µM (active)
EC50 (H4): 11.3 µM (active)
IC50 [8]: 83.3 µM (inactive)

O=c1c2ccccc2oc2ccc(NCCCN3CCOCC3)cc12
AC50 [4]: 34.2 µM (active)

Cc1ccc2nc(-c3ccc(SCC(=O)Nc4ccc5c(c4)OCCO5)nc3)[nH]c2c1
IC50 [9]: 21.5 µM (inactive)

C[C@@H]1CN([C@H](C)CO[Si](C)(C)C(C)(C)C)C(=O)c2cc(NC(=O)C3CCCCC3)ccc2O[C@H]1CN(C)C(=O)c1ccc(Cl)cc1
AC50 [2]: > 70 µM (inactive)
AC50 [3]: > 70 µM (inactive)

Cc1ccccc1NC(=O)C1CCCN1S(=O)(=O)c1ccccc1C(F)(F)F (configuration not stated)
IC50 (Orexin receptor type 2 [10]): 10.1 µM (inactive)
IC50 [11]: 4.95 µM (active)
IC50 [12]: 0.352 µM (active)
IC50 [13]: > 49.8 µM (inactive)
IC50 (CHO-K1): > 66.2 µM (inactive)
IC50 (Orexin receptor type 2 [14]): 2.34 µM (active)

CO/C(O)=C1\C(C)=Nc2sc(C(N)=O)c(N)c2C1c1ccncc1 (configuration not stated)
AC50 [15]: 4.4 µM (active)

CN1c2ccc(-c3cccc(F)c3)cc2[C@H]2[C@H](CCN2C(=O)C2CC2)[C@H]1CO
AC50 [15]: 0.134 µM (active)

COC(=O)C1=C(c2ccccc2OCc2ccccc2)C[C@@H]2CC[C@H]1N2C(=O)NCCOc1ccccc1Cl
IC50 (Orexin receptor type 2 [10]): 3.9 µM (active)
IC50 [11]: > 16.6 µM (inactive)
IC50 [12]: 3.71 µM (active)
IC50 [13]: 48.6 µM (inactive)
IC50 (CHO-K1): > 66.2 µM (inactive)
IC50 (Orexin receptor type 2 [14]): > 50 µM (inactive)
